The test system of series [1] is E. faecalis SR7914. Put plainly: MIC of quinolone compounds (Test Example 2). In kind it is cell-based. To be noted: Enterococcus faecalis, procedure of Test Example 1. Here is the method: (§1) Minimal inhibitory concentration (MIC: μg/ml) against different strains of bacteria was assayed according to the standard method recommended by CLSI (clinical and laboratory standards institute). Samples were prepared from test compound solution in DMSO (1280 μg/mL) by two fold (serial) dilution with DMSO. The sample was added to bacteria suspension at the concentration of 5%, and MIC was determined. Mueller Hinton Broth, which has been adjusted for cation concentration, was used for culture media in this test. The inoculation concentration was about 5×10^5 CFU/mL.
(§2) The quinolone compounds of the invention were tested for antimicrobial activity according to the procedure in Test Example 1.

Series [2] concerns E. faecalis ATCC 29212. The series can be described thus: MIC of quinolone compounds (Test Example 2). The following applies: Enterococcus faecalis, ATCC29212, procedure of Test Example 1. The series is classed as cell-based. Here is the method:
as §1, §2

Series [3] has as its system S. aureus FDA 209P. Put plainly: MIC of quinolone compounds (Test Example 2). In kind it is cell-based. The following applies: Staphylococcus aureus, FDA209P, procedure of Test Example 1. Here is the method:
as §1, §2

The subject of series [4] is S. aureus SR3637. The series can be described thus: MIC of quinolone compounds (Test Example 2). The series is classed as cell-based. To be noted: Staphylococcus aureus, procedure of Test Example 1. Here is the method:
as §1, §2

The test system of series [5] is E. faecalis SR7914. The series can be described thus: MIC by CLSI standard method (Test Example 1). In kind it is cell-based. To be noted: Enterococcus faecalis, cation-adjusted Mueller Hinton Broth, about 5×10^5 CFU/mL. Here is the method:
as §1

The test system of series [6] is S. aureus smith. The series can be described thus: MIC by CLSI standard method (Test Example 1). The series is classed as cell-based. To be noted: Staphylococcus aureus, cation-adjusted Mueller Hinton Broth, about 5×10^5 CFU/mL. Here is the method: as §1
Series [7] has as its system S. aureus ATCC 700787. Put plainly: MIC by CLSI standard method (Test Example 1). In kind it is cell-based. The following applies: Staphylococcus aureus, ATCC700787, cation-adjusted Mueller Hinton Broth, about 5×10^5 CFU/mL. Here is the method:
as §1

In series [8] the test system is E. faecalis ATCC 29212. Put plainly: MIC by CLSI standard method (Test Example 1). The series is classed as cell-based. The following applies: Enterococcus faecalis, ATCC29212, cation-adjusted Mueller Hinton Broth, about 5×10^5 CFU/mL. Here is the method: as §1
Series [9] relates to E. faecium SR7917. Put plainly: MIC by CLSI standard method (Test Example 1). The series is classed as cell-based. To be noted: Enterococcus faecium, cation-adjusted Mueller Hinton Broth, about 5×10^5 CFU/mL. Here is the method: as §1
For series [10], the system named is S. aureus FDA 209P. The series can be described thus: MIC by CLSI standard method (Test Example 1). To be noted: Staphylococcus aureus, FDA209P, cation-adjusted Mueller Hinton Broth, about 5×10^5 CFU/mL. In kind it is cell-based. Here is the method: as §1

Structures are written as SMILES.

Turning to `COc1c(N2CCNOCC2)c(F)cc2c(=O)c(C(=O)O)cn(C3CC3)c12` [Compound (71)], the melting point (commonly the temperature, or range, at which the solid turns liquid) fell in the range of 222 to 224 °C. Further, the MIC (as a rule, the least concentration at which growth counts as inhibited) in series [1] is no more than 1 µg/mL. Also, in series [2], the MIC was no more than 1 µg/mL. In addition, the MIC in series [3] is no more than 1 µg/mL. Also, in series [4], the MIC was no more than 1 µg/mL.
Turning to `CC(=O)NC[C@H]1CN(c2cc(F)c(N3CCn4c(=O)c5cccnc5n4CC3)c(F)c2)C(=O)O1` [Example 81], the MIC in series [5], in series [6], in series [7], in [8], in series [9] and in series [10] was no more than 1 µg/mL in each case.
Turning to `O=C(NC[C@H]1CN(c2cc(F)c(N3CCn4c(=O)c5cccnc5n4CC3)c(F)c2)C(=O)O1)C(F)F` [Example 82], the MIC in series [5], in series [6], in [7], in series [8], in series [9] and in series [10] was no more than 1 µg/mL in each case.
Turning to `CC(=O)NC[C@H]1CN(c2cc(F)c(N3CCNN(C(=O)Nc4nccs4)CC3)c(F)c2)C(=O)O1` [Example 83], the MIC in series [5], in series [6], in series [7], in [8], in series [9] and in series [10] was no more than 1 µg/mL each time.
`O=C(NC[C@H]1CN(c2cc(F)c(N3CCNN(C(=O)Nc4nccs4)CC3)c(F)c2)C(=O)O1)C(F)F` [Example 84]: the MIC in [5], in series [6], in series [7], in series [8], in series [9] and in [10] was no more than 1 µg/mL in each case.
For the compound `CC(=O)NC[C@H]1CN(c2cc(F)c(N3CCNN(C(=O)Nc4ccncc4)CC3)c(F)c2)C(=O)O1` [Example 85], the MIC in series [5], in series [6], in [7], in [8], in series [9] and in series [10] was no more than 1 µg/mL each time.
As for `O=C(NC[C@H]1CN(c2cc(F)c(N3CCNN(C(=O)Nc4ccncc4)CC3)c(F)c2)C(=O)O1)C(F)F` [Example 86], the MIC in [5], in series [6], in series [7], in [8], in series [9] and in series [10] was no more than 1 µg/mL throughout.
With `CC(=O)NC[C@H]1CN(c2cc(F)c(N3CCNN(C(=O)CO)CC3)c(F)c2)C(=O)O1` [Example 91], the MIC in series [5], in [6], in [7], in series [8], in series [9] and in series [10] was no more than 1 µg/mL each time.

Values taken from patent publication US8148362B2, “Compound having heterocyclic ring” (Research Foundation Itsuu Laboratory, priority 2006, dated 2012).
